Patent publication US20220289732A1, “HETEROCYCLIC WDR5 INHIBITORS AS ANTI-CANCER COMPOUNDS” (NOVARTIS AG, priority 2019, published 2022)

Legend:
[1] = molecular target: WDR5 (Homo sapiens, UniProt P61964); assay: WDR5 HTRF binding assay; details: read-out: (a) WDR5 HTRF Pep Val v.1[Inhibitor/IC50]Qualified AC50
Summary of the method: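 In this HTRF displacement format, biotinylated MLL1 WIN peptide (3762-3773, 20 nM) binds WDR5 (6 nM) in 25 mM Hepes pH 7.5 with 100 mM NaCl, 2 mM DTT and 0.1% BSA for 20 min at rt. Detection used streptavidin-APC/anti-His-Eu for 1 hr. IC50 came from dose-response fits of normalized signal; 15 nM biotin-PEG-His peptide served as counter assay.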

[2] = tested on: MV4-11 cells; assay: MV4-11 6-day cell growth CTG (CellTiter-Glo) assay; type: cell-based; details: Homo sapiens, MV4-11, 144 h, 6 days, read-out: (c) MLL/WDR5 cell proliferation assay//MLL/WDR5 proliferation MV4:11 Qualified AC50
Summary of the method: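 IC50 comes from a dose-response fit of % inhibition relative to DMSO controls, with viable cells measured by CellTiter-Glo luminescence. Compounds were tested over 12 points (1:3, starting at 50 μM final) on MV4-11 cells plated at 300/well and grown 6 days.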

[3] = molecular target: wild type MLL1 four-member complex (MLL1-4C) (Homo sapiens, UniProt P61964); assay: MLL1 LC-MS assay (SAH production); type: biochemical; details: read-out: (b) MLL LCMS Peptide Val.v.1 Qualified AC50
Summary of the method: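 SAH formation, measured by LC-MS/MS after a TFA quench containing d4-SAH, was normalised to no-compound and no-enzyme controls and fitted to a dose-response curve for IC50. Reactions ran 120 min at rt (pH 8.0 Tris buffer) with final 30 nM MLL1 four-member complex, 2.5 μM SAM and 10 μM biotinylated H3[1-21] peptide, after a 20-min enzyme/SAM-compound preincubation.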

| SMILES | IC50 [1] [nM] | AC50 [2] [nM] | AC50 [3] [nM] |
| --- | --- | --- | --- |
| CCOc1cc([C@H](C)N2CCc3c(cc(CCN(C)CC)cc3-c3cc(C)cnc3C)C2=O)ncc1C#N [Example 114, (S)-6-(1-(5-(2,5-dimethylpyridin-3-yl)-7-(2-(ethyl(methyl)amino)ethyl)-1-oxo-3,4-dihydroisoquinolin-2(1H)-yl)ethyl)-4-ethoxynicotinonitrile] | < 10 | 10 to 1000 | 10 to 1000 |
| CCOc1cc([C@H](C)N2CCc3c(cc(CCN(C)CC)cc3-c3cn(CCO)nc3C)C2=O)ncc1C#N [Example 115, (S)-4-ethoxy-6-(1-(7-(2-(ethyl(methyl)amino)ethyl)-5-(1-(2-hydroxyethyl)-3-methyl-1H-pyrazol-4-yl)-1-oxo-3,4-dihydroisoquinolin-2(1H)-yl)ethyl)nicotinonitrile] | < 10 | 10 to 1000 | 10 to 1000 |
| CCOc1cc([C@H](C)N2CCc3c(cc(CCN(C)CC)cc3-c3c[nH]nc3C)C2=O)ncc1C#N [Example 116, (S)-4-ethoxy-6-(1-(7-(2-(ethyl(methyl)amino)ethyl)-5-(3-methyl-1H-pyrazol-4-yl)-1-oxo-3,4-dihydroisoquinolin-2(1H)-yl)ethyl)nicotinonitrile] | < 10 | 10 to 1000 | 10 to 1000 |
| CCOc1cc([C@H](C)N2CCc3c(cc(CCN(C)CC)cc3-c3ccnc(F)c3C)C2=O)ncc1C#N [Example 117, (S)-4-ethoxy-6-(1-(7-(2-(ethyl(methyl)amino)ethyl)-5-(2-fluoro-3-methylpyridin-4-yl)-1-oxo-3,4-dihydroisoquinolin-2(1H)-yl)ethyl)nicotinonitrile] | < 10 | 10 to 1000 | 10 to 1000 |
| CCOc1cc([C@H](C)N2CCc3c(cc(CCN(C)CC)cc3-c3cc(C)cnc3Cl)C2=O)ncc1C#N [Example 118, (S)-6-(1-(5-(2-chloro-5-methylpyridin-3-yl)-7-(2-(ethyl(methyl)amino)ethyl)-1-oxo-3,4-dihydroisoquinolin-2(1H)-yl)ethyl)-4-ethoxynicotinonitrile] | < 10 | 10 to 1000 | 10 to 1000 |
| CCOc1cc([C@H](C)N2CCc3c(cc(CCN(C)CC)cc3-c3cccnc3C(F)F)C2=O)ncc1C#N [Example 119, (S)-6-(1-(5-(2-(difluoromethyl)pyridin-3-yl)-7-(2-(ethyl(methyl)amino)ethyl)-1-oxo-3,4-dihydroisoquinolin-2(1H)-yl)ethyl)-4-ethoxynicotinonitrile] | < 10 | 10 to 1000 | 10 to 1000 |
| CCOc1cc([C@H](C)N2CCc3c(cc(CCN(C)CC)cc3-c3cc(CO)cnc3Cl)C2=O)ncc1F [Example 120, (S)-5-(2-chloro-5-(hydroxymethyl)pyridin-3-yl)-2-(1-(4-ethoxy-5-fluoropyridin-2-yl)ethyl)-7-(2-(ethyl(methyl)amino)ethyl)-3,4-dihydroisoquinolin-1(2H)-one] | < 10 | 10 to 1000 | 10 to 1000 |
| CCOc1cc([C@H](C)N2CCc3c(cc(CCN(C)CC)cc3-c3cn(C)nc3C)C2=O)ncc1Cl [Example 121, (S)-2-(1-(5-chloro-4-ethoxypyridin-2-yl)ethyl)-5-(1,3-dimethyl-1H-pyrazol-4-yl)-7-(2-(ethyl(methyl)amino)ethyl)-3,4-dihydroisoquinolin-1(2H)-one] | < 10 | 10 to 1000 | 10 to 1000 |
| CCOc1cc([C@H](C)N2CCc3c(cc(CCN(C)CC)cc3-c3ccc(N)nc3C)C2=O)ncc1C#N [Example 122, (S)-6-(1-(5-(6-amino-2-methylpyridin-3-yl)-7-(2-(ethyl(methyl)amino)ethyl)-1-oxo-3,4-dihydroisoquinolin-2(1H)-yl)ethyl)-4-ethoxynicotinonitrile] | < 10 | 10 to 1000 | 10 to 1000 |
